Experimental data published in PubChem BioAssay AID179 (DTP/NCI, 2004).
pEC50, pIC50: −log10 of the molar value. Active and inactive are the calls of the source.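 The calls were made as follows: active = compounds giving half or more protection of infected cells from virus-caused growth loss, again on retest; inactive = the rest.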 Where a SMILES comes first, the peptide text is derived from it. [ ]: non-standard residue; d: D form. Phe(4-NO2) = N[CH](Cc1ccc([N+](=O)[O-])cc1)C(=O)O

System: CEM cells HIV-1 protection, formazan growth assay
Assay: NCI AIDS Antiviral Assay
Conditions: for pIC50: measured here: growth of uninfected CEM cells
In short: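 Human CEM cells, uninfected and HIV-1-infected, received five drug concentrations, and growth was read by soluble formazan assay. Compounds giving at least 50% protection were retested; reproducible 100% protection defined confirmed active.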

Compound | outcome | pEC50 | pIC50
COC1=C(C(=O)OC(C)(C)C)C23CCCCC2(C(C(=O)OC(C)(C)C)=C(OC)C3C(=O)OC(C)(C)C)C1C(=O)OC(C)(C)C (configuration not stated) | inactive | – | –
CC1(C)C(C#N)=[N+]([O-])C(C)(C)N1O | – | < 3.70 | 3.91
Nc1ncnc2c1sc1nc3ccccc3n12 | – | < 3.70 | < 3.70
Cc1ccc(S(=O)(=O)N(C=O)N=C2CCN(Cc3ccccc3)CC2)cc1 | – | < 4.21 | < 4.21
COC(CN(C)C(=S)Nc1cccc2ccccc12)OC | – | < 3.70 | 4.10
CC(=O)Nc1ccccc1Sc1ccccc1 | – | < 3.61 | 4.16
CC1C(c2ccc3c(c2)OCO3)CC(Cl)CC12C=C1OCOC1=CC2=O (configuration not stated) | – | < 4.16 | 4.32
c1cc2n(n1)CCN2 | – | < 2.64 | 3.77
CCOC(=O)C[C@@]12CCCNC1(C)CCc1ccccc12 (some centres not stated) | inactive | – | –
O=C(c1ccc(Cl)cc1)c1cnc2nc(-c3ccccc3)c(-c3ccccc3)nn12 | – | < 5.75 | < 5.75
c1ccc(N2CCN(c3ccccc3)C2)cc1 | – | < 3.70 | < 3.70
CC12CCCC3(CC(=O)C(C)(C)C3C(=O)C1)C2 (configuration not stated) | – | < 3.70 | < 3.70
COC1OC2COC1(OC)C1OC(C)(C)OC21 (configuration not stated) | – | < 3.70 | < 3.70
Cc1cn(C2CC(N=[N+]=[N-])C(COC(=O)CCCCCCCCCCN=[N+]=[N-])O2)c(=O)[nH]c1=O (configuration not stated) | – | 7.41 | 4.54
CCCN(CCC)C1=Nc2ccccc2-n2cnnc2C1 | – | < 3.70 | 3.75
Cc1ccc(S(=O)(=O)N/N=C\c2c3ccccc3[n+](C)c3ccccc23)cc1 | inactive | – | –
CC(C)(C)OC(=O)/N=C/c1c(O)c2ccccc2oc1=O | – | < 3.70 | 4.52
CC(=O)NC(CCCN(Cc1ccccc1)C(=O)N(C)N=O)C(=O)NCc1ccccc1 (configuration not stated) | – | < 3.95 | < 3.95
C/C(=N\NC(=S)Nc1ccc(C(=O)O)cc1)c1ccccn1 | – | < 3.96 | 4.74
CNc1ncnc2c1ncn2C1OC(CO)CC1F (configuration not stated) | – | 3.80 | < 3.70
COC(=O)CCC(NC(=O)C(CCC(=O)OC)NC(=O)C(CCC(=O)OC)NC(=O)C(CCC(=O)OC)NC(=O)C(CCC(=O)OC)NC(=O)C(Cc1ccc([N+](=O)[O-])cc1)NC(=O)C(CCC(=O)OC)NC(=O)C(CCC(=O)OC)NC(=O)C(CCC(=O)OC)NC(=O)C(CCC(=O)OC)NC(=O)C(CCC(=O)OC)NC(C)=O)C(N)=O (configuration not stated) (Ac-E(OMe)E(OMe)E(OMe)E(OMe)E(OMe)[Phe(4-NO2)]E(OMe)E(OMe)E(OMe)E(OMe)E(OMe)-NH2; configuration not given here) | – | < 4.00 | < 4.00
CC(C)(C)C1CNP(=O)(c2ccccc2)OC1 (configuration not stated) | – | < 4.15 | < 4.15

Compound | outcome | pEC50 | pIC50
CCN(CC)CCN1C(=O)C(=O)N(c2cccc3ccccc23)C1=O | – | < 3.70 | < 3.70
c1ccc(N=C(Nc2ccccc2)N2CCCCC2)cc1 | – | < 3.70 | 4.11
O=C(Nc1ccc(Cl)c(C(F)(F)F)c1)C(=O)c1c(O)c2ccccc2oc1=O | – | < 3.64 | 3.72
CCOC(=O)c1cc2c3ccn(Cc4ccccc4)c3c3c(C)[nH]oc3c2n1 | – | 4.58 | < 3.70
CCSC1=N/C(=C\c2ccco2)C(=O)N1 | – | < 3.70 | < 3.70
Nc1cccc2cc(Cl)cnc12 | – | < 3.70 | < 3.70
CC(C)c1ccc(C2NC(=S)NC3=C2c2ccccc2C3=O)cc1 (configuration not stated) | – | < 3.97 | 4.83
C=C(C)C1CCC2(C(=O)O)CCC3(C)C(CCC4C5(C)CCC(O)C(C)(C)C5CCC43C)C12 (configuration not stated) | – | < 3.70 | 4.18
Nc1ncnc2c1Sc1nc(Cl)ccc1N2 | – | < 4.83 | < 4.83
CCOC(=O)C1Cc2[nH]c3ccccc3c2C(C)C1C (configuration not stated) | – | < 4.02 | 4.31
OCC(O)C(OC1OC(CO)C(O)C(O)C1O)c1nn(-c2ccc(Cl)cc2)c2nc3cc(Cl)c(Cl)cc3nc12 (configuration not stated) | inactive | – | –
CCOC(=O)c1ccc(N=C2SC(=S)N(c3ccc(F)cc3)C2=Nc2ccc(C(=O)OCC)cc2)cc1 | – | < 4.70 | 5.17
COC(=O)C(C(=O)C(=O)Nc1c(C)cccc1C(C)(C)C)c1nc2ccc(Cl)cc2[nH]c1=O (configuration not stated) | – | < 4.26 | < 4.26
COc1ccc(-n2[nH]c3c(cnc4ccccc43)c2=O)cc1 | – | < 3.70 | < 3.70
c1cc2nnc1SCCCSc1ccc(nn1)SCCCS2 | – | < 3.90 | 3.94
Cn1c(=O)cc(NCc2ccc(Cl)cc2)[nH]c1=O | – | < 3.70 | 3.71
C/C(=N/NC(=S)Nc1ccc([N+](=O)[O-])cc1)c1cccc(/C(C)=N\NC(=S)Nc2ccc([N+](=O)[O-])cc2)n1 | – | < 3.70 | 6.32
Clc1ccc(-c2c(C3=NCCN3)nnn2-c2ccccc2)cc1 | – | < 3.67 | 3.76
CCCCCCCCCCCCCCCc1nc(SCC(=O)O)n[nH]1 | – | < 5.41 | < 5.41
CCn1c(=O)c2c3ccc(OC)cc3[nH]c2c2ccc(OC)cc21 | – | < 3.70 | 4.25
O=c1[nH]c2ccccc2nc1/C=C(\O)c1ccccc1O | – | < 4.87 | < 4.87
